Consider two substances from article PMC4482410, “A Peptide Mimetic of 5-Acetylneuraminic Acid-Galactose Binds with High Avidity to Siglecs and NKG2D” (PLoS ONE, 2015).

Data set [1] has as its target T1, NKG2D (Homo sapiens, UniProt P26718).
T1 construct: the extracellular lectin-type domain was fused at the N-terminus with a human IgG1 Fc domain; purchased R&D Systems, Inc., Minneapolis, MN
T1 sequence (P26718 73-216 limits assumed): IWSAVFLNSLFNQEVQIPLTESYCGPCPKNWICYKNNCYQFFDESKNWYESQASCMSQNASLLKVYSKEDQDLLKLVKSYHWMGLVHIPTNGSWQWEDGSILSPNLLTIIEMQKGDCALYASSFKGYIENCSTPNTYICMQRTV
The data set is described as follows: isothermal microcalorimetry. The class given is binding. As to the method: (§1) Isothermal microcalorimetry was performed by TA Instruments Professional Services (New Castle, DE) by titrating 10 μM NKG2D (monomer concentration) (R&D Systems, Inc., Minneapolis, MN) with 100 μM svH1C in 50 mM Tris-HCl, pH 7.5, 150 mM NaCl, 0.1 mM EDTA. Recombinant human receptors were obtained from R&D Systems as chimeric proteins. NKG2D is a type II transmembrane protein and the extracellular lectin-type domain was fused at the N-terminus with a human IgG1 Fc domain. Recombinant siglecs contained a C-terminal IgG1 Fc domain or a His6–10 tag. The lyophilized proteins were reconstituted in phosphate-buffered saline, pH 7.2 (PBS), to 100 μg/mL. The Fc-chimeric proteins were bound to protein A/G-coated wells of microtiter plates (Pierce Biotechnology). His-tagged proteins were bound in Nickel-coated plates (Pierce Biotechnology). Sufficient proteins were added to wells to saturate the binding capacity of the wells. […] Absorbance was measured at 450 nm and converted to the amount of streptavidin-peroxidase bound with the specific activity of the conjugate determined under the conditions of the assay. […]
We then assayed binding of svH1C to NKG2D directly by isothermal microcalorimetry. svH1C (100 μM) was titrated into a solution of NKG2D (10 μM, subunit concentration) and changes in heat content of the system were measured. […]

A further data set can be described thus: toxicity in vivo. Particulars: statement for svH1C or similar glycan mimetics; no data shown.
In data set [2] the target is T1, NKG2D. The data set is described as follows: inhibition of binding of svH1C to NKG2D. Particulars: estimated from fetuin inhibition (Fig 4); read-out: binding constant of svH1C to NKG2D estimated by inhibition of binding by fetuin. How it is done: as §1, with “wells. After a wash to remove unbound receptor, wells were blocked with 1% gelatin in wash buffer.” for “wells.”
Fig 4 Binding of svH1C to NKG2D. (A) The amount of bound peptide was measured after extensive washing with PBS containing 0.05% Tween-20. […]

For another data set, the system named is siglecs. As to the kind of experiment: solid-phase binding of biotinylated tetravalent peptides to siglecs. Particulars: biotinylated peptides 2 μM. The arrangement: species or system human. As to the method: as §1, with “wells. After a wash to remove unbound receptor, wells were blocked with 1% gelatin in wash buffer. Wash buffers were either 10 mM phosphate, pH 7.2; 10 mM HEPES, pH 7.4; or 50 mM Tris-HCl, pH.7.5, each in 150 mM NaCl containing 0.05% Tween-20. Biotinylated peptides were prepared as 2 μM solutions in the wash buffer and 50 μL (100 pmoles) were added to each well and incubated at room temperature for one hour. After four washes with 350 μL buffer containing 0.05% Tween-20, each assay was incubated with 50 μL of 1 μg/mL streptavidin-peroxidase (Sigma-Aldrich, St. Louis, MO).” for “wells.”
MAA is a mixture of M. amurensis leukoagglutinin (MAL) and M. amurensis hemagglutinin (MAH), both of which along with SNA1 bind preferentially to terminal Neu5Ac-Gal- sequences on complex glycans. Binding of the peptide to several lectins specific for monosaccharides was not detected. […]

Data set [3] has as its system lectins specific for di- or tri-saccharides that terminate with Neu5Ac-Gal. Particulars: ref [29],[30]; cited from earlier work. An excerpt:
We initially identified several sequences of amino acids that bound to specific plant lectins by screening phage display libraries. Sequences were further refined by in silico modeling of docking of a peptide into the sugar binding site of the crystal structures of lectins. These studies predicted that several short peptide sequences, 5 to 8 amino acids in length, would have significant affinity to lectins chosen as analogs of cell-surface receptors. The sequences identified by this approach were incorporated into tetravalent structures, a design based on the concept of avidity as a fun ...

The test system of data set [4] is lectins that bind monosaccharides. Particulars: ref [29],[30]; cited from earlier work. An excerpt:
We initially identified several sequences of amino acids that bound to specific plant lectins by screening phage display libraries. Sequences were further refined by in silico modeling of docking of a peptide into the sugar binding site of the crystal structures of lectins. These studies predicted that several short peptide sequences, 5 to 8 amino acids in length, would have significant affinity to lectins chosen as analogs of cell-surface receptors. […] MAA is a mixture of M. amurensis leukoagglutinin (MAL) and M. amurensis hemagglutinin (MAH), both of which along with SNA1 bind preferentially to terminal Neu5Ac-Gal- sequences on complex glycans. Binding of the peptide to several lectins specific for monosaccharides was not detected. We then assayed binding of svH1C to several siglecs, which comprise a family of cell-surface receptors that are specific for Neu5Ac-Gal/GalNAc- sequ ...

pKd: −log10 of the molar value. Several values for one entry are separate records, joined by “and”; a condition that tells them apart may be missing. Equal values may be shown once. Bridges are numbered along the chain shown (N, C = ends). Roman numbers before positions name the chains, in order. Where no end group is shown, it is not given here.

“I: NPSHPLSGGGGSKK-NH2 / II: NPSHPLSGGGGSK / III: NPSHPLSGGGGS / IV: NPSHPLSGGGGS (amide I:13-IV:C, I:14-II:C, II:13-III:C) [svH1C, [(NPSHPLSGGGGS)2K]2K-NH2]”: the pKd on NKG2D [1] (100 μM svH1C titrated into 10 μM NKG2D (subunit concentration), 50 mM Tris-HCl, pH 7.5, 150 mM NaCl, 0.1 mM EDTA, read-out: KD) is 6.24 and 6.22; on NKG2D [1] (abstract, range for siglecs and NKG2D together, read-out: KD, NKG2D (abstract range)), 6.00 to 6.22; on NKG2D [2], around 6.00. For the same substance, the toxicity in vivo result in the data set “toxicity in vivo” is recorded as “non-toxic in vivo”.
With “NPSHPSLG (also: tetravalent, biotinylated) [svH1D]”, the “binding of biotinylated tetravalent peptides to siglecs” value with siglecs is listed as “also bound to siglecs”. The “binding to lectins specific for di- or tri-saccharides that terminate with Neu5Ac-Gal” value in data set [3] is recorded as “bound strongly”. The “binding to lectins specific for monosaccharides” value in data set [4] is listed as “did not bind”.
